The nature of this data set: method code SF, from DOI: 10.1002/jps.2600650919, PMID: 966149. The conditions noted are these: pH 7.4.
Consider `CC(=O)SC1CC2=CC(=O)CCC2(C)C2CCC3(C)C(CCC34CCC(=O)O4)C12` (stereo not given), for which the logD (as a rule, the decadic logarithm of the distribution of all forms, ionised or not, between an organic phase and buffer at a given pH) was 2.78.

Compound `CC12CCC(=O)C=C1C=CC1C2CCC2(C)C1CCC21CCC(=O)O1` (stereo not given) returned a logD of 2.68.

As to `CC12CCC(=O)C=C1C1(CC1)CC1C2CCC2(C)C1CCC21CCC(=O)O1` (stereo not given), the logD was found to be 3.15.

In the case of `CCOC(=O)C1CC2=CC(=O)CCC2(C)C2CCC3(C)C(C4CCC(=O)O4)CCC3C12` (stereo not given), the logD worked out at 2.54.

`CC12CCC(=O)C=C1CCC1C3CCC4(CCC(=O)O4)C3(C)CC(O)C12F` (stereo not given) returned a logD of 2.4.

`CC12CCC(=O)C=C1CC(C#N)C1C2CCC2(C)C1CCC21CCC(=O)O1` (stereo not given) returned a logD of 1.67.

`CC12CCC(=O)C=C1C1CC1C1C2CCC2(C)C1CCC21CCC(=O)O1` (stereo not given) yielded a log distribution coefficient (logD) of 3.08.

For the compound `CC(C)OC(=O)C1CC2=CC(=O)CCC2(C)C2CCC3(C)C(C4CCC(=O)O4)CCC3C12` (stereo not given), the logD worked out at 2.82.

`COC(=O)C1CC2=CC(=O)CCC2(C)C2CCC3(C)C(CCC34CCC(=O)O4)C12` (stereo not given) gave a logD of 2.18.

For the compound `CC12CCC(=O)C=C1CCC1C3CCC4(CCC(=O)O4)C3(C)CC3OC312` (stereo not given), the logD was determined as 1.96.

For the origin of these results see the SangsterLogP compilation.
